Results from US10874743B2, “IRAK degraders and uses thereof” (Kymera Therapeutics, Inc., priority 2017, dated 2020).
Where two headings read alike, the source gives them in different places.

Experiment: Pharmacokinetics in CD-1 mice (plasma concentrations, PK parameters)
Type: in vivo
Conditions: CD-1, mouse, plasma; for concentration at 5 min / concentration at 0.5 h / concentration at 1 h / concentration at 2 h / concentration at 4 h / concentration at 24 h: read-out: Concentration; for AUC(0-inf): read-out: AUCInf; for AUC(0-t): read-out: AUClast; for C0: read-out: C0; for MRT inf: read-out: MRTInf_obs; for Cmax: read-out: Cmax; for Tmax: read-out: Tmax
Procedure: Pharmacokinetics for I-127, I-172 and I-210 were determined in Sprague Dawley rats or CD-1 mice by dosing intravenous (IV), subcutaneous (SC) or per oral (PO) using facility SOPs and sampling plasma at required time points. Species, formulation, route of administration and time points samples are listed below for each compound.
Compounds were extracted from plasma, injected on reverse phase HPLC, eluted with a gradient from 5% to 95% acetonitrile in water and quantified by mass spectrometry with internal standard. Data are expressed in ng compound per mL of plasma.

[1] = iv, 2 mg/kg, mouse (CD1) iv 2 mg/kg, Mean
[2] = iv, 2 mg/kg, mouse (CD1) iv 2 mg/kg, individual Mouse 1-3
[3] = po, 30 mg/kg, mouse (CD1) po 30 mg/kg, Mean
[4] = po, 30 mg/kg, mouse (CD1) po 30 mg/kg, individual Mouse 4-6
[5] = sc, 30 mg/kg, mouse (CD1) sc 30 mg/kg, Mean
[6] = sc, 30 mg/kg, mouse (CD1) sc 30 mg/kg, individual Mouse 7-9

Q: What does the source list for `O=C1CCC(N2C(=O)c3cccc(NCCOCCOCCNCc4ccc(-n5cc(NC(=O)c6coc(-c7ccnc(NCC8CC8)c7)n6)c(C(F)F)n5)cc4)c3C2=O)C(=O)N1` (stereo not drawn) [I-210, 2-[2-(Cyclopropylmethylamino)-4-pyridyl]-N-[3-(difluoromethyl)-1-[4-[[2-[2-[2-[[2-(2,6-dioxo-3-piperidyl)-1,3-dioxoisoindolin-4-yl]amino]ethoxy]ethoxy]ethylamino]methyl]phenyl]pyrazol-4-yl]oxazole-4-carboxamide]?
A: concentration at 5 min [1]: 589 ng/mL; concentration at 5 min [2]: 579 ng/mL; concentration at 0.25 h [1]: 390 ng/mL; concentration at 0.25 h [2]: 364 ng/mL; concentration at 0.5 h [1]: 283 ng/mL; concentration at 0.5 h [2]: 306 ng/mL; concentration at 1 h [1]: 193 ng/mL; concentration at 1 h [2]: 220 ng/mL; concentration at 2 h [1]: 90.8 ng/mL; concentration at 2 h [2]: 89.3 ng/mL; concentration at 4 h [1]: 26.1 ng/mL; concentration at 4 h [2]: 32.5 ng/mL; concentration at 8 h [1]: 5.19 ng/mL; concentration at 8 h [2]: 5.72 ng/mL; half-life [1]: 1.49 h; AUC(0-inf) [1]: 672 ng·h/mL; AUC(0-t) [1]: 661 ng·h/mL; C0 [1]: 726 ng/mL; MRT inf [1]: 1.5 h; half-life [2]: 1.52 h; AUC(0-inf) [2]: 714 ng·h/mL; AUC(0-t) [2]: 701 ng·h/mL; C0 [2]: 730 ng/mL; MRT inf [2]: 1.58 h; concentration at 0.25 h [3]: 30.8 ng/mL; concentration at 0.5 h [3]: 55 ng/mL; concentration at 1 h [3]: 72 ng/mL; concentration at 2 h [3]: 127 ng/mL; concentration at 2 h [4]: 177 ng/mL; concentration at 4 h [3]: 120 ng/mL; concentration at 4 h [4]: 92.5 ng/mL; concentration at 8 h [3]: 22.8 ng/mL; half-life [3]: 2.27 h; AUC(0-inf) [3]: 753 ng·h/mL; AUC(0-t) [3]: 676 ng·h/mL; Cmax [3]: 148 ng/mL; MRT inf [3]: 4.14 h; Tmax [3]: 3.33 h; half-life [4]: 2.59 h; AUC(0-inf) [4]: 917 ng·h/mL; AUC(0-t) [4]: 786 ng·h/mL; Cmax [4]: 177 ng/mL; MRT inf [4]: 4.22 h; Tmax [4]: 2 h; concentration at 0.25 h [5]: 79.3 ng/mL; concentration at 0.25 h [6]: 74.8 ng/mL; concentration at 0.5 h [5]: 85 ng/mL; concentration at 0.5 h [6]: 88.8 ng/mL; concentration at 1 h [5]: 97 ng/mL; concentration at 1 h [6]: 107 ng/mL; concentration at 2 h [5]: 95 ng/mL; concentration at 2 h [6]: 90 ng/mL; concentration at 4 h [5]: 98 ng/mL; concentration at 4 h [6]: 95.9 ng/mL; concentration at 8 h [5]: 43.5 ng/mL; concentration at 8 h [6]: 39.6 ng/mL; concentration at 24 h [5]: 2.85 ng/mL; concentration at 24 h [6]: 3.62 ng/mL; half-life [5]: 3.96 h; AUC(0-inf) [5]: 1040 ng·h/mL; AUC(0-t) [5]: 1020 ng·h/mL; Cmax [5]: 109 ng/mL; MRT inf [5]: 5.87 h
